The source of these data is publication PMC7288171, “Synergistic Effects of Thiosemicarbazides with Clinical Drugs against S. aureus” (Molecules, 2020).

Series [1] has as its system S. aureus ATCC 25923. More on the design: method as in PMID 25897586. The following applies: S. a. ATCC 25923; compounds 1–5; cited from earlier work.
In series [2] the test system is HeLa cell line. On the set-up: method as in PMID 25897586. The following applies: IC30 = 30% or greater destruction of cells; cited from earlier work.
The test system of series [3] is MSSA-4. Description: MIC, clinical isolate of S. aureus. In kind it is cell-based. The following applies: Staphylococcus aureus; clinical isolate MSSA-4; read-out: MIC. The procedure, abridged: (§1)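 A thiosemicarbazide series was screened for antibacterial activity on Gram-positive ATCC strains. Clinical S. aureus isolates were included as well.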
Series [4] has as its system MSSA-1. Description: MIC, clinical isolate of S. aureus. The format is cell-based. The following applies: Staphylococcus aureus; clinical isolate MSSA-1; read-out: MIC. The procedure, abridged: as §1
The subject of series [5] is MSSA-2. Briefly: MIC, clinical isolate of S. aureus. The format is cell-based. The settings on record: Staphylococcus aureus; clinical isolate MSSA-2; read-out: MIC. The procedure, abridged:
as §1

Series [6] relates to MRSA-1. Description: MIC, clinical isolate of S. aureus. The format is cell-based. The settings on record: Staphylococcus aureus; clinical isolate MRSA-1; read-out: MIC. The procedure, abridged:
as §1

Series [7] deals with MSSA-3. Description: MIC, clinical isolate of S. aureus. The settings on record: Staphylococcus aureus; clinical isolate MSSA-3; read-out: MIC. In kind it is cell-based. In outline:
as §1

In series [8] the test system is S. epidermidis ATCC 12228. On the set-up: method as in PMID 25897586. The following applies: S. e. ATCC 12228; compounds 1–5; cited from earlier work.
Series [9] relates to L929 cell line. More on the design: method as in PMID 25897586. The settings on record: IC30 = 30% or greater destruction of cells; cited from earlier work.
In series [10] the test system is S. aureus ATCC 6538. More on the design: method as in PMID 25897586. The following applies: S. a. ATCC 6538; compounds 1–5; cited from earlier work.
Series [11] is described as follows: MTT cytotoxicity assay. In kind it is cell-based, human. The settings on record: human, Hs27 foreskin fibroblast cells (ATCC CRL-1634), 25 µg/mL, 24 h, vehicle control = 100%.
Series [12] deals with human foreskin fibroblast Hs27 cells (CRL-1634). Briefly: MTT cytotoxicity assay. In kind it is cell-based. The settings on record: Homo sapiens, 24 h of treatment.
For series [13], the system named is M. luteus ATCC 10240. More on the design: method as in PMID 25897586. The following applies: M. l. ATCC 10240; compounds 1–5; cited from earlier work.
In series [14] the test system is B. cereus ATCC 10876. More on the design: method as in PMID 25897586. The following applies: B. c. ATCC 10876; compounds 1–5; cited from earlier work.
Series [15] concerns B. subtilis ATCC 6633. More on the design: method as in PMID 25897586. The settings on record: B. s. ATCC 6633; compounds 1–5; cited from earlier work.
For series [16], the system named is L929 cell line. Description: Cytotoxicity (earlier study). The format is cell-based. The settings on record: L929 IC30 / MIC S. aureus ATCC 25923. From the text:
(§2) For the compound with the best solubility (2), its cytotoxicity against L929 and HeLa cells was presented previously. The cytotoxicity was expressed as rigorous IC30 values, defined as the highest dilutions of test samples that cause 30% or greater destruction of cells.

The subject of series [17] is HeLa cell line. Description: Cytotoxicity (earlier study). In kind it is cell-based. The following applies: HeLa IC30 / MIC S. aureus ATCC 25923.
Text: as §2

The test system of series [18] is S. aureus ATCC 25923. Description: Checkerboard broth dilution synergy assay. The format is cell-based. The procedure, abridged: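 Checkerboard broth microdilution against S. aureus ATCC 25923 paired each thiosemicarbazide with amoxicillin, gentamicin, levofloxacin, linezolid or vancomycin. FICI is the sum of each drug's MIC in combination divided by its MIC alone: ≤0.5 synergy, 0.5–1 additive, 1–4 indifferent, ≥4 antagonism.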
(In general: In broth dilution the organism is exposed to a series of concentrations in liquid medium.)

The term MIC denotes the lowest concentration that inhibits growth of the organism. In general, IC30 refers to the concentration at which the effect reaches the 30% level. As a reminder, the viability is a per cent measure of how many cells are alive, often set against a control. Lower therefore signals a greater loss of cells. One may read the IC50 as the point on the concentration scale where inhibition reaches its midpoint. Low readings indicate inhibition by little substance, high ones a need for much substance.

Values after ≈ are worked out from the molar mass of the structure shown.

`Cc1cccc(C(=O)NC(=S)NNC(=O)c2cccc(Cl)c2Cl)c1` [compound 2]: the MIC in series [1] is 7.81 µg/mL (≈ 20.4 µM); in series [3], 500 µg/mL (≈ 1310 µM); in series [4], greater than 500 µg/mL; in series [5] it was greater than 500 µg/mL; in [6] it was 500 µg/mL (≈ 1310 µM); in series [7] it was greater than 500 µg/mL. Also, the MIC in [8] is listed as 3.91 µg/mL (≈ 10.2 µM); in series [10], 7.81 µg/mL (≈ 20.4 µM); in series [13], 0.98 µg/mL (≈ 2.56 µM); in series [14], 1.95 µg/mL (≈ 5.1 µM); in series [15] it was 0.49 µg/mL (≈ 1.28 µM). In addition, the values for the IC30 in series [2] and in series [9] were 30.97 µg/mL (≈ 81 µM) and 30.78 µg/mL (≈ 80.5 µM), respectively. The viability at 24 h, 25 µg/mL in series [11] stood at 76.7%. In addition, in series [12], the concentration for half-maximal inhibition (IC50) was greater than 25 µg/mL. For the same compound, the entries for the “selectivity index SI (SI = IC30/MIC)” value in [16] and in [17] were 3.94 and 3.97, respectively. Moreover, the “interaction in combination” value in series [18] (combination with amoxicillin) was “additive”; in series [18] (combination with gentamicin), “no interactions”; in series [18] (combination with levofloxacin) it was “no interactions”; in series [18] (combination with linezolid), “synergistic”; in series [18] (combination with vancomycin), “no interactions”.
